Assay results reported in patent publication US20190255175A1, “ACTIVATION OF TRPA1+ NOCICEPTORS IN THE VAGUS NERVE ATTENUATES SYSTEMIC INFLAMMATION” (THE FEINSTEIN INSTITUTE FOR MEDICAL RESEARCH, priority 2018, published 2019).

Assays:
nodose ganglion neurons = assay: Whole-cell patch clamp recordings of nodose ganglion neurons; assay type: cell-based, mice; details: nodose neurons held at −65 mV; IL-1β 20 μg/ml
Method: Whole-cell patch clamp recordings were made with glass pipettes pulled on a P-97 electrode puller (Sutter Instruments, Novato, Calif.). The resistance of the pipettes was 2-4 MΩ when filled with an intracellular solution (in mM: CsCl 140, HEPES 10, EGTA 5, Mg-ATP 2, NaGTP 0.3, MgCl2 2, Phosphocreatine 10, pH 7.25 adjusted with CsOH). Cells were superfused at a rate of 2 ml/min with an external bath solution containing the following (in mM): 150 NaCl, 2.5 KCl, 10 HEPES, 10 D-glucose, 2 CaCl2, and 1 MgCl2, pH 7.3-7.4. Experiments were performed at room temperature (22-24° C.). Currents from neurons were monitored with an Multiclamp 700B amplifier (Molecular Devices, Union City, Calif.), acquired through Digidata 1550B (Molecular Devices) onto a computer using pClamp 11 software (Molecular Devices). Data were analyzed using Clampfit 11 (Molecular Devices). All chemicals used for electrophysiological recordings were purchased from Sigma. All drugs and solutions were made fresh from drug stock solutions.
Using patch clamp recordings, IL-1β responses were recorded in nodose ganglion neurons. Application of IL-1β (20 μg/ml) induced calcium influx as indicated by increase of fluorescence in 6 out of 332 (1.8%) sensory nodose ganglion neurons from VGlut2-GCaMP3 mice. Next, whole-cell patch clamp recordings were carried out on the same neurons that responded to IL-1β in calcium influx analysis. When the membrane potential was held at −65 mV, bath application of IL-1β (20 μg/ml) produced slow inward currents in 4 out of 332 (1.2%) nodose neurons. The amplitude of IL-1β induced currents are 108±23 pA (n=4). […] In current-clamp mode, IL-1β reduced action potential threshold from −25±2 mV to −31±3 mV (n=4). […] To further determine the potential interaction of TRPA1 with IL-1β, nodose ganglion neurons from TRPA1 KO mice were examined in a culture system. […] IL1R1 co-localizes with TRPA1 on nodose ganglion neurons, as was determined using immunohistochemical staining.

[1] = tested on: TRPA1+ fibers of the vagus nerve; assay: Optovin applied to the vagus nerve with 405 nm optical stimulation, followed by LPS endotoxemia; serum TNF; assay type: in vivo, mice; details: TRPA1 KO mice; optovin + 405 nm light vs no light; LPS 8 mg/kg
Method: (§1) FIG. 1A-1C. Stimulation of sensory TRPA1+ vagus fibers attenuates serum TNF levels in endotoxemic mice. A) Wild type mice were treated with optovin directly to the vagus nerve, followed by exposure to no light (n=9) or 405 nm light (n=10). Mice were also subjected to a proximal vagotomy (n=12) cutting off afferent signaling to the brain. These mice were also treated with optovin and stimulated with 405 nm light. B) TRPA1 KO mice were treated with optovin directly to the vagus nerve. The mice were then treated with no light (n=9) or 405 nm light (n=8). C) α7 KO mice were treated with optovin directly to the vagus nerve. The mice were then treated with no light (n=10) or 405 nm light (n=12). Two asterisks indicate p<0.01.
(§2) Optical stimulation was generated by Thor Labs LED driver DC4100, with a 405 nm LED model M405L3 (Newton, N.J.). Sham mice underwent surgical control up to the point of identifying the cervical vagus nerve, without isolating it from the bundle. In both conditions 2 μl of optovin was applied directly on the nerve for 2 minutes prior to stimulation. Sham animals received no light applied to the nerve. The stimulated group received 405 nm light 1000 mA, 10 hz, with a 10% duty cycle for 5 minutes with an approximate power of 80-85 μW. Animals then recovered for 2 hours and were administered LPS (8 mg/kg) via intraperitoneal (ip) injection. Mice were euthanized 1.5 hours after LPS administration, with serum collected.
(§3) All vagotomized animas had their vagus nerve isolated. Prior to the vagotomy a 6.0 suture was tied around the vagus nerve. The nerve was then cut proximally or above (blocking left vagus nerve signaling to the brain while signaling to the periphery remained intact) to where 2 μl of optovin was to be added. All mice were stimulated using the same parameters as previously indicated. Animals then recovered for 2 hours and were administered LPS (8 mg/kg) via intraperitoneal (ip) injection. Mice were euthanized 1.5 hours after LPS administration, with serum collected.
(§4) Vagus nerve stimulation has been used as a treatment for peripheral inflammation in both rodents and humans^18-21. TRPA1 is an ion channel that has been indicated in neural sensing of inflammation within the skin and lungs 22-24. To determine TRPA1's role in the inflammatory reflex, photochemical stimulation of TRPA1+ fibers of the vagus nerve was carried out using a molecule called optovin. Optovin selectively binds to TRPA1 making it photoactive to 405 nm light^25. To directly stimulate the TRPA1+ vagus nerve fibers, optovin was applied directly to nerve, with one group unstimulated and one group stimulated with the 405 nm light for 5 minutes with LPS (8 mg/kg) administer 2 hours later. […]

[2] = biological target: T1, TRPA1+ fibers of the vagus nerve (Mus musculus, UniProt Q8BLA8); assay: as above; assay type: in vivo, mice
T1 construct: optovin was applied directly to nerve; from tissue; also TRPA1 KO and α7 nAChR KO groups
T1 sequence (Q8BLA8 whole entry): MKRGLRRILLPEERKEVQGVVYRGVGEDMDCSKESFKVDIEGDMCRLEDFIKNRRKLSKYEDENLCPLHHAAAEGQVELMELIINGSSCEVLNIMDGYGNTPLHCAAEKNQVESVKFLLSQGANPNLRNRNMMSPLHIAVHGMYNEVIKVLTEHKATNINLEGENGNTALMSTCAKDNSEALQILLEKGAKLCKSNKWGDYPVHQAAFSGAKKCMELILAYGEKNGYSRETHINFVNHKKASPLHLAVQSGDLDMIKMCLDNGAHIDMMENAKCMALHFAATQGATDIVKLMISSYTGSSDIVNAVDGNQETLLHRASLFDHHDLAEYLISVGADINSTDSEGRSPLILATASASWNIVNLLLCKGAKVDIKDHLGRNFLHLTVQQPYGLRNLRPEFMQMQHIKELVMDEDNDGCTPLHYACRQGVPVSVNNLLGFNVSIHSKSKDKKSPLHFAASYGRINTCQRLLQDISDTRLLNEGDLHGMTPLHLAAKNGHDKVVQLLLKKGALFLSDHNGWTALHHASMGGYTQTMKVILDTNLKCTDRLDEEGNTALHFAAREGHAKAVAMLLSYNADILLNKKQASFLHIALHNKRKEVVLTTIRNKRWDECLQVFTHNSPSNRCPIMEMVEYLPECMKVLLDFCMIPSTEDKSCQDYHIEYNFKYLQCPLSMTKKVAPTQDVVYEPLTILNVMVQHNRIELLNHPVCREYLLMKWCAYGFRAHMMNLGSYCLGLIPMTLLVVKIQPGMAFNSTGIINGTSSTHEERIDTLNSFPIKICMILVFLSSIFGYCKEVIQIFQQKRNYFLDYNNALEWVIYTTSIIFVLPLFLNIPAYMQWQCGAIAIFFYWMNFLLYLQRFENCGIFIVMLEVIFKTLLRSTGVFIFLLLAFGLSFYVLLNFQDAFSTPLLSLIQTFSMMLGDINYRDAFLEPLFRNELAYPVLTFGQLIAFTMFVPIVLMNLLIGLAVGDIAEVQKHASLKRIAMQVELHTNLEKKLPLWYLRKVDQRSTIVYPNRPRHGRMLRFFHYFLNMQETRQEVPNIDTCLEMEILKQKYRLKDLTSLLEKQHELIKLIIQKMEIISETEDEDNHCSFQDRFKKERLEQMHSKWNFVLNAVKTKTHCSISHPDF
Method: as §1, §2, §3, §4

TRPA1+ neurons [3] = biological target: T2, TRPA1+ neurons (Mus musculus, UniProt Q8BLA8); assay: Pharmacological stimulation of TRPA1+ neurons with polygodial in endotoxemic mice; TNF by ELISA; assay type: in vivo; details: wildtype mice; polygodial 5 mg/kg ip 30 min before endotoxin 0.1 mg/kg ip; collected after 90 min
T2 construct: from tissue; host or cells: living mice (wild type and TRPA1 KO), systemic i.p. dosing; TRPA1+ neurons
T2 sequence (Q8BLA8 whole entry): as above
Method: (§5) FIG. 2A-2D. […] A) Serum: wildtype mice received intraperitoneal administration of polygodial (5 mg/kg) (n=6) or vehicle (n=5). After 30 minutes, mice were subjected to endotoxemia (0.1 mg/kg endotoxin, i.p.). Blood was collected after 90 min and serum TNF levels were determined by ELISA. *p<0.05. B) Spleen: wildtype mice received intraperitoneal administration of polygodial (5 mg/kg) (n=7) or vehicle (n=6). After 30 minutes, mice were subjected to endotoxemia (0.1 mg/kg endotoxin, i.p.). Spleens were collected after 90 min and serum TNF levels were determined by ELISA. *p<0.05. C, D) Pharmacological Stimulation of TRPA1+ neurons fail to attenuate TNF levels in endotoxemic TRPA1 KO mice. C) Serum: TRPA1 KO mice received intraperitoneal administration of polygodial (5 mg/kg) (n=9) or vehicle (n=8). After 30 minutes, mice were subjected to endotoxemia (0.1 mg/kg endotoxin, i.p.). Blood was collected after 90 min and serum TNF levels were determined by ELISA. D) Spleen: TRPA1 KO mice received intraperitoneal administration of polygodial (5 mg/kg) (n=9) or vehicle (n=8). After 30 minutes, mice were subjected to endotoxemia (0.1 mg/kg endotoxin, i.p.). Spleens were collected after 90 min and serum TNF levels were determined by ELISA.

TRPA1+ neurons [4] = assay: as above; assay type: in vivo; details: TRPA1 KO mice; polygodial 5 mg/kg ip 30 min before endotoxin 0.1 mg/kg ip; collected after 90 min
Method: as §5

Cn1cnc2ncn(Cc3nc(CCc4ccc(Cl)cc4)no3)c(=O)c21 [AM0902, reference compound]
Block of inward currents after IL-1β application (nodose ganglion neurons): completely blocked

Cc1cc(/C=C2/SC(=S)NC2=O)c(C)n1-c1cccnc1 [optovin]
TNF levels in response to LPS [1]: no significant reductions in TNF levels | TNF levels in response to LPS ([2]; proximally vagotomized mice, optovin + 405 nm light, LPS 8 mg/kg): no significant reduction in TNF levels | TNF levels in response to LPS ([2]; wild type mice, optovin on vagus nerve, 405 nm light 5 min vs no light, LPS 8 mg/kg ip 2 h later, serum 1.5 h after LPS): significantly reduced TNF levels | serum TNF levels ([2]; α7 nAChR KO mice, optovin + 405 nm light vs no light, LPS 8 mg/kg): did not significantly reduce serum TNF levels

CC1(C)CCC[C@]2(C)[C@@H](C=O)C(C=O)=CC[C@@H]12 [polygodial]
TNF levels in serum (TRPA1+ neurons [3]): attenuates TNF levels | TNF levels in spleen (TRPA1+ neurons [3]): attenuates TNF levels | TNF levels in serum (TRPA1+ neurons [4]): no significant reduction | TNF levels in spleen (TRPA1+ neurons [4]): no significant reduction
